Test results as given in the CheMixHub ionic liquid set.
± gives the uncertainty stated by the source.

Assay: xn = mol fraction of the nth substance listed

CCCC[N+](C)(CCCC)CCCC.[Cl-] + OC[C@H]1O[C@@](CO)(O[C@H]2O[C@H](CO)[C@@H](O)[C@H](O)[C@H]2O)[C@@H](O)[C@@H]1O + O
viscosity [mPa·s], 101.3 kPa
Conditions	293.15 K	298.15 K	303.15 K	308.15 K	313.15 K
x2 = 0, x1 = 0.0003423	1.011 ± 0.016	0.904 ± 0.016	0.806 ± 0.015	0.729 ± 0.015	0.662 ± 0.015
x2 = 0, x1 = 0.0007203	–	–	–	–	0.672 ± 0.015
x2 = 0, x1 = 0.001062	1.036 ± 0.016	0.931 ± 0.016	0.826 ± 0.015	0.747 ± 0.015	0.686 ± 0.015
x2 = 0, x1 = 0.00144	–	–	–	–	0.695 ± 0.015
x2 = 0.0003599, x1 = 0.0003421	1.027 ± 0.016	0.917 ± 0.016	0.817 ± 0.015	0.737 ± 0.015	0.668 ± 0.015
x2 = 0.0003616, x1 = 0.00072	1.041 ± 0.016	0.928 ± 0.016	0.824 ± 0.015	0.746 ± 0.015	0.68 ± 0.015
x2 = 0.0003631, x1 = 0.001062	1.057 ± 0.016	0.948 ± 0.016	0.839 ± 0.015	0.758 ± 0.015	0.695 ± 0.015
x2 = 0.0003647, x1 = 0.001439	1.069 ± 0.016	0.962 ± 0.016	0.857 ± 0.016	0.773 ± 0.015	0.706 ± 0.015
x2 = 0.0007214, x1 = 0.000342	1.052 ± 0.016	0.937 ± 0.016	0.83 ± 0.015	0.747 ± 0.015	0.677 ± 0.015
x2 = 0.0007247, x1 = 0.0007198	1.069 ± 0.016	0.948 ± 0.016	0.839 ± 0.015	0.759 ± 0.015	0.692 ± 0.015
x2 = 0.0007277, x1 = 0.001061	1.084 ± 0.016	0.968 ± 0.016	0.855 ± 0.015	0.773 ± 0.015	0.709 ± 0.015
x2 = 0.000731, x1 = 0.001438	1.096 ± 0.016	0.984 ± 0.016	0.871 ± 0.016	0.786 ± 0.015	0.718 ± 0.015
x2 = 0.001083, x1 = 0.0003419	1.071 ± 0.016	0.952 ± 0.016	0.845 ± 0.015	0.761 ± 0.015	0.689 ± 0.015
x2 = 0.001088, x1 = 0.0007195	1.088 ± 0.016	0.965 ± 0.016	0.854 ± 0.015	0.772 ± 0.015	0.701 ± 0.015
x2 = 0.001092, x1 = 0.001061	1.105 ± 0.016	0.994 ± 0.016	0.872 ± 0.016	0.785 ± 0.015	0.718 ± 0.015
x2 = 0.001097, x1 = 0.001438	1.118 ± 0.016	1.007 ± 0.016	0.89 ± 0.016	0.8 ± 0.015	0.729 ± 0.015
x2 = 0.001444, x1 = 0.0003418	1.093 ± 0.016	0.971 ± 0.016	0.86 ± 0.015	0.774 ± 0.015	0.701 ± 0.015
x2 = 0.00145, x1 = 0.0007192	1.11 ± 0.016	0.984 ± 0.016	0.87 ± 0.016	0.786 ± 0.015	0.712 ± 0.015
x2 = 0.001456, x1 = 0.001061	1.126 ± 0.016	1.009 ± 0.016	0.889 ± 0.016	0.799 ± 0.015	0.73 ± 0.015
x2 = 0.001463, x1 = 0.001437	1.141 ± 0.016	1.025 ± 0.016	0.908 ± 0.016	0.816 ± 0.015	0.741 ± 0.015
x2 = 0.001804, x1 = 0.0003416	1.115 ± 0.016	0.987 ± 0.016	0.875 ± 0.015	0.788 ± 0.015	0.713 ± 0.015
x2 = 0.001813, x1 = 0.000719	1.134 ± 0.016	1.001 ± 0.016	0.885 ± 0.016	0.798 ± 0.015	0.726 ± 0.015
x2 = 0.00182, x1 = 0.00106	1.153 ± 0.016	1.025 ± 0.016	0.905 ± 0.016	0.814 ± 0.015	0.744 ± 0.015
x2 = 0.001828, x1 = 0.001437	1.166 ± 0.016	1.042 ± 0.016	0.925 ± 0.016	0.829 ± 0.015	0.76 ± 0.015
x2 = 0.002163, x1 = 0.0003415	1.137 ± 0.016	1.006 ± 0.016	0.89 ± 0.016	0.802 ± 0.015	0.725 ± 0.015
x2 = 0.002173, x1 = 0.0007187	1.155 ± 0.016	1.02 ± 0.016	0.901 ± 0.016	0.811 ± 0.015	0.734 ± 0.015
x2 = 0.002176, x1 = 0.00106	1.171 ± 0.016	1.044 ± 0.016	0.922 ± 0.016	0.828 ± 0.015	0.754 ± 0.015
x2 = 0.002192, x1 = 0.001436	1.182 ± 0.016	1.059 ± 0.016	0.941 ± 0.016	0.841 ± 0.015	0.762 ± 0.015
x2 = 0.002532, x1 = 0.0003414	1.153 ± 0.016	1.027 ± 0.016	0.904 ± 0.016	0.806 ± 0.015	0.734 ± 0.015
x2 = 0.002546, x1 = 0.0007185	1.176 ± 0.016	1.038 ± 0.016	0.916 ± 0.016	0.822 ± 0.015	0.754 ± 0.015
x2 = 0.00256, x1 = 0.001436	1.203 ± 0.017	1.075 ± 0.016	0.957 ± 0.016	0.859 ± 0.016	0.775 ± 0.015
x2 = 0.002561, x1 = 0.001059	1.187 ± 0.016	1.058 ± 0.016	0.934 ± 0.016	0.842 ± 0.015	0.766 ± 0.015

CC[N+](CC)(CC)CC.[Cl-] + Oc1ccccc1
viscosity [mPa·s], 101 kPa
Conditions	303.15 K	323.15 K
x1 = 0.2	34.1 ± 1.1	14.34 ± 0.47
x1 = 0.25	38.6 ± 1.3	–

CCCC[n+]1ccn(C)c1.N#C[S-] + [Br-].[Li+] + CN1CCCC1=O
298.15 K, 101 kPa
Conditions	viscosity [mPa·s]
x1 = 0.001086, x2 = 0.02623	2.384 ± 0.029
x1 = 0.001092, x2 = 0.05108	3.161 ± 0.037
x1 = 0.001138, x2 = 0.07527	4.38 ± 0.051
x1 = 0.002508, x2 = 0.07516	4.412 ± 0.051
x1 = 0.002857, x2 = 0.02618	2.408 ± 0.029
x1 = 0.003083, x2 = 0.05098	3.197 ± 0.038
x1 = 0.004195, x2 = 0.07504	4.452 ± 0.051
x1 = 0.004231, x2 = 0.02614	2.429 ± 0.029
x1 = 0.004315, x2 = 0.05092	3.225 ± 0.038
x1 = 0.005622, x2 = 0.05085	3.261 ± 0.038
x1 = 0.005708, x2 = 0.02611	2.45 ± 0.03
x1 = 0.006129, x2 = 0.07489	4.48 ± 0.052
x1 = 0.007405, x2 = 0.02606	2.464 ± 0.03
x1 = 0.007466, x2 = 0.07479	4.509 ± 0.052
x1 = 0.007731, x2 = 0.05075	3.29 ± 0.039
x1 = 0.008848, x2 = 0.07469	4.531 ± 0.052
x1 = 0.008873, x2 = 0.02602	2.492 ± 0.03
x1 = 0.009097, x2 = 0.05068	3.316 ± 0.039
x1 = 0.01032, x2 = 0.07458	4.563 ± 0.053
x1 = 0.01035, x2 = 0.02598	2.521 ± 0.03
x1 = 0.01065, x2 = 0.0506	3.345 ± 0.039
x1 = 0.01201, x2 = 0.02594	2.555 ± 0.031
x1 = 0.01214, x2 = 0.05052	3.376 ± 0.04
x1 = 0.01216, x2 = 0.07444	4.604 ± 0.053

CCCC[n+]1ccn(C)c1.N#C[S-] + [Cl-].[Li+] + CN1CCCC1=O
298.15 K, 101 kPa
Conditions	viscosity [mPa·s]
x1 = 0.000959, x2 = 0.03815	2.65 ± 0.035
x1 = 0.001063, x2 = 0.07221	3.61 ± 0.047
x1 = 0.001192, x2 = 0.104	4.991 ± 0.064
x1 = 0.002304, x2 = 0.07212	3.657 ± 0.048
x1 = 0.002399, x2 = 0.03809	2.683 ± 0.036
x1 = 0.00252, x2 = 0.1039	5.021 ± 0.065
x1 = 0.003854, x2 = 0.03804	2.715 ± 0.036
x1 = 0.003994, x2 = 0.072	3.706 ± 0.048
x1 = 0.00415, x2 = 0.1037	5.048 ± 0.065
x1 = 0.005535, x2 = 0.03797	2.75 ± 0.036
x1 = 0.005737, x2 = 0.1036	5.082 ± 0.065
x1 = 0.005932, x2 = 0.07186	3.734 ± 0.049
x1 = 0.006974, x2 = 0.07178	3.765 ± 0.049
x1 = 0.007127, x2 = 0.1034	5.104 ± 0.066
x1 = 0.007392, x2 = 0.0379	2.777 ± 0.037
x1 = 0.008668, x2 = 0.1032	5.141 ± 0.066
x1 = 0.008714, x2 = 0.07165	3.796 ± 0.049
x1 = 0.009327, x2 = 0.03783	2.805 ± 0.037
x1 = 0.009861, x2 = 0.07157	3.834 ± 0.05
x1 = 0.009986, x2 = 0.1031	5.166 ± 0.066
x1 = 0.01105, x2 = 0.03776	2.846 ± 0.038
x1 = 0.01164, x2 = 0.1029	5.198 ± 0.067
x1 = 0.01191, x2 = 0.07142	3.877 ± 0.05
x1 = 0.01372, x2 = 0.03766	2.869 ± 0.038

CC(=O)[O-].CC[n+]1ccn(C)c1 + [Cl-].[NH4+]
101 kPa, x2 = 0
Conditions	electrical conductivity [S/m]	viscosity [mPa·s]
308.15 K	0.473 ± 0.0095	71.3 ± 4.6
318.15 K	0.76 ± 0.015	44.2 ± 2.9

CCCC[n+]1ccn(C)c1.N#C[N-]C#N + [I-].[Li+]
101 kPa, x1 = 1
Conditions	electrical conductivity [S/m]
288.15 K	0.611 ± 0.061
298.15 K	0.883 ± 0.089
333.15 K	2.18 ± 0.22

CC(=O)[O-].CC[n+]1ccn(C)c1 + [N-]=C=S.[NH4+]
313.15 K, 101 kPa, x2 = 0
Conditions	electrical conductivity [S/m]	viscosity [mPa·s]
–	0.6 ± 0.019	56.4 ± 1.5

CCCC[P+](CCCC)(CCCC)CCCC.CS(=O)(=O)[O-] + c1c[nH]cn1
101.33 kPa, x1 = 0.5
Conditions	viscosity [mPa·s]
313.05 K	100 ± 21
353.05 K	21.6 ± 4.4

CCCC[n+]1ccn(C)c1.N#C[S-] + c1ccccc1
viscosity [mPa·s], 100 kPa
Conditions	x2 = 0	x2 = 0.2334	x2 = 0.258	x2 = 0.3919	x2 = 0.5094
298.15 K	62.8 ± 3.2	33 ± 1.7	30.7 ± 1.6	20.1 ± 1.1	12.51 ± 0.69
308.15 K	40.6 ± 2.1	22.5 ± 1.2	21.1 ± 1.1	14.29 ± 0.78	9.27 ± 0.52
318.15 K	27.8 ± 1.5	16.2 ± 0.88	15.23 ± 0.83	10.64 ± 0.59	7.16 ± 0.42
328.15 K	20.1 ± 1.1	12.19 ± 0.67	11.52 ± 0.64	8.25 ± 0.47	5.65 ± 0.34

CCCC[n+]1ccn(C)c1.N#C[S-] + c1ccsc1
viscosity [mPa·s], 100 kPa
Conditions	x2 = 0	x2 = 0.103	x2 = 0.143	x2 = 0.246	x2 = 0.61	x2 = 0.701
298.15 K	57.4 ± 1.8	47.2 ± 2.4	42.9 ± 2.2	32 ± 1.7	13.36 ± 0.73	9.93 ± 0.56
308.15 K	37.4 ± 2	31.4 ± 1.6	28.7 ± 1.5	22 ± 1.2	9.94 ± 0.56	7.57 ± 0.44
318.15 K	25.8 ± 1.4	22.1 ± 1.2	20.4 ± 1.1	15.96 ± 0.86	7.67 ± 0.44	5.96 ± 0.36
328.15 K	18.7 ± 1	16.22 ± 0.88	15.07 ± 0.82	12.02 ± 0.67	6.1 ± 0.37	4.83 ± 0.3
